From US11752125B2, “Anti-neuroinflammatory and protective compounds in Achillea fragrantissima” (THE STATE OF ISRAEL MINISTRY OF AGRICULTURE & RURAL …, priority 2013, dated 2023)

What was measured:
[1] = tested on: primary astrocytes; test: Protection of astrocytes from H2O2-induced cell death (LDH); format: cell-based, rat; conditions: LDH 20 h later
Method: Primary cultures of astrocytes were prepared from cerebral cortices of 1-2 day-old neonatal Wistar rats as described (Elmann et al., 2011b). Fourteen days old astrocytes were used in the experiments. The research was conducted in accordance with the NIH guide for the care and use of laboratory animals, and was approved by the Institutional Animal Care and Use Committee of The Volcani Center, Agricultural Research Organization (IL-135/07, approval date Apr. 11, 2007). All efforts were made to minimize animal suffering and to reduce the number of animals used.
Astrocytes were re-plated at 24-well poly-D-lysine-coated plastic plates at a density of 1×10^5/well, in DMEM w/o Phenol Red containing 2% FBS, 2 mM glutamine, 100 U/mL penicillin, and 100 μg/mL streptomycin. H2O2 in the presence or absence of TTF were added, and cell viability was determined using a commercial colorimetric assay (Roche Applied Science, Germany) according to the manufacturer's instructions. This assay is based on the measurement of lactate dehydrogenase (LDH) activity released from the cytosol of damaged cells into the incubation medium. The absorbance was measured at 492 nm in a plate reader. The percentage of cytotoxicity was calculated according to the following equation, where the “ATriton-x treated cells” is the maximum releasable LDH in the cells:
In order to characterize the ability of TTF to protect against H2O2-induced astrocytic cell death, inventors assessed changes in cell viability using a model in which oxidative stress was induced by the addition of H2O2 to cultures of primary astrocytes. The concentration of H2O2 used in experiments (175-200 μM) resembles the concentration reported in rat striatum under ischemic conditions (Hyslop et al., 1995). […] Following preincubation, H2O2 was added, and cytotoxicity was determined 20 h later using the LDH assay. […] It should be noted that at all concentrations tested, the cytotoxicity of this flavonoid by itself to astrocytes was very low (<11%) as was determined by the LDH method (FIG. 2C). […] The protective activity of TTF was also compared to that of memantine, which is used as a drug for the treatment of Alzheimer's disease.
1. Produce a primary culture of rat brain glial cells according to the method described in “Protective effects of the essential oil of salvia fruticosa and its constituents on astrocytic susceptibility to hydrogen peroxide-induced cell death”. 2009. A. Elmann, S. Mordechay, M. Rindner, O. Larkov, M. Elkabetz, U. Ravid. Journal of agricultural and food chemistry. 57(15):6636-41; 2. Separate astrocytes from other cell types in the culture according to the method described in “Protective effects of the essential oil of salvia fruticosa and its constituents on astrocytic susceptibility to hydrogen peroxide-induced cell death”. 2009. A. Elmann, S. Mordechay, M. Rindner, O. Larkov, M. Elkabetz, U. Ravid. Journal of agricultural and food chemistry. 57(15):6636-41; 3. Incubate the cultured astrocytes (37° C., 5% CO2) for 2 hours with freshly diluted TTF or AcA of the invention; 4. Add 175-200 micromolars of freshly diluted H2O2; 5. Incubate the culture for 20-24 hr (37° C., 5% CO2); 6. Measure cell cytotoxicity and viability by the colorimetric lactate dehydrogenase (LDH) assay (Roche Applied science) according to the manufacturer's instructions, and the crystal violet cell staining as follows: 7. Gently draw out medium from plate; 8. Transfer plate to a chemical hood; 9. Dispense 150 μl 5% formaldehyde (in PBS) to each well and incubate 15 min at RT; 10. Pour out formaldehyde to chemical waste and gently rinse under running tap water; 11. Remove excess water by tapping plate on a tissue paper; 12. Dispense 150 μl crystal violet solution (10 gr/liter, in water) to each well; 13. Incubate 15 min at RT (in the chemical hood); 14. Pour out crystal violet to chemical waste and gently rinse under running tap water until all residual dye is removed; 15. Tap plate on a tissue paper to remove remaining water; 16. […]

[2] = Hydrogen peroxide scavenging activity (A230); conditions: for H2O2 scavenging ability: 1 mM H2O2 in PBS, 10 min; for H2O2 scavenged: 8 μM compound; for H2O2 scavenged / H2O2 scavenging ability at higher concentrations: 1 mM H2O2, 10 min; for H2O2 scavenging ability at higher concentrations: up to 32 μM compound
Method: The scavenging of H2O2 was determined by the method of Ruch et al. Carcinogenesis. 1989 June; 10(6):1003-8, using 1 mM instead of 4 mM H2O2. A 1 mM solution of H2O2 was prepared in PBS and was incubated with different concentrations of TTF, quercetin or memantine. Absorbance (A230) was determined spectrophotometrically 10 min later against blank solutions containing TTF, quercetin or memantine in PBS without H2O2.
(§1) For assessment of H2O2 scavenging activity, 1 mM H2O2 and different concentrations of TTF, quercetin or memantine were co-incubated in PBS. Optical density was measured 10 min later. The results are shown in FIG. 6 and are means±SEM of two experiments performed in duplicates (n=4). **P<0.01, ***P<0.001, compared to H2O2 in the absence of TTF.
as §1, with “[…]” for “assessment”, “achillolide A,” for “TTF,”, “results” for “results are shown in FIG. 6 and”, “compound Results are shown in FIG. 38.” for “TTF.”

[3] = tested on: SAPK/JNK; test: Aβ25-35-induced SAPK/JNK phosphorylation in N2a cells (ELISA); format: cell-based; conditions: concomitant treatment 30-40 min
Method: 7. Measure the amount of total and phosphorylated SAPK/JNK in cell lysates) of N2a cells, by ELISA using the PathScan total SAPK/JNK sandwich ELISA kit (Cell Signaling TECHNOLOGY) and the PathScan phosoho-SAPK/JNK (Thr183/Tyr185) sandwich ELISA kit (Cell Signaling TECHNOLOGY), respectively, according to the manufacturer's instructions. 8. Determine the optical density at 450 nm using a microplate reader.
(§2) N2a cells were treated concomitantly with Aβ25-35 and TIF for 40 min. Cells were extracted and the levels of phosphorylated or total SAPK/JNK were determined by specific ELISA kits. The results are the mean±SEM of two different experiments (n=4) for phosphorylated SAPK/JNK and three different experiments (n=6) for total SAPK/JNK.
as §2, with “achillolide A” for “TIF”
N2a cells were treated concomitantly with Aβ25-35 and memantine for 30 min. Cells were extracted and the levels of phosphorylated SAPK/JNK were determined by a specific ELISA kit. The results are the mean±SEM of one experiment (n=2).

[4] = 1 μM (lowest concentration tested), compound added 2 h before H2O2
[5] = 8 μM compound added 2 h before H2O2

SMILES | protection of astrocytes from H2O2-induced cell death ([1]; H2O2 200 μM added 2 h after compound) | H2O2 scavenging ability [2] | effect on Aβ25-35-induced phosphorylation of SAPK/JNK [3] | protection against H2O2-induced cell death [1, 4] | protection against H2O2-induced cell death [1, 5] | H2O2 scavenged [2] | H2O2 scavenging ability at higher concentrations [2] | protection against H2O2-induced cell death ([1]; 10 μM compound added 2 h before H2O2)
C=C1CCC2=C(CO)C(=O)O[C@H]2/C=C(\C)[C@H](OC(C)=O)CC1=O [achillolide A] | protects | hydrogen peroxide scavenging ability | significantly decreased | – | – | – | – | –
COc1cc(-c2oc3cc(OC)c(OC)c(O)c3c(=O)c2O)ccc1O [TTF, 3,5,4′-trihydroxy-6,7,3′-trimethoxyflavone] | – | – | significantly inhibited | 24% | 92% | 7% | ≤ 7% | –
O=c1c(O)c(-c2ccc(O)c(O)c2)oc2cc(O)cc(O)c12 [quercetin, 3,3′,4′,5,7-Pentahydroxyflavone, reference compound] | – | – | – | – | – | 57% | 88% | 36%
CC12CC3CC(C)(C1)CC(N)(C3)C2 [memantine, reference compound] | – | did not have any scavenging ability | down-regulates | 48% | 58% | – | – | –
